In patent US20260224482A1, “USE OF OXIDATIVE PRECURSORS IN POULTRY FARMING” (AGA NANOTECH LTD, priority 2023, published 2026):
Entries after “also recorded” stand apart in the source; their conditions may differ.

Columns and labels:
[1] = tested on: Ross 308 male day-old chickens; experiment: In-water PAA in chickens: performance and safety; type: in vivo
Protocol: (§1) A total of 96 Ross 308 male day-old chickens were used during the trial duration (randomized block design with 2 rooms, 12 pens per room, 4 birds per pen and 4 pens per level of inclusion), whilst PAA treatment was administered during the last week. Six different PAA levels of inclusion were tested through in-water daily administration of SP and TAED precursors. Possible PAA effect on body weight gain (BWG), FCR (feed conversion ratio), feed/water intake and BN (bacterial number) were assessed through fitting linear mixed model (i.e. treatment as fixed effect and hierarchy of room/pen/bird when possible as random effect). Longitudinal data were used when repeated measures were taken. Total bacterial number in DNA extracted from crop, jejunum and caecal content was calculated through qPCR targeting 16S rRNA gene (V3 region). Study design and protocol were approved by SRUC Animal Welfare and Review Body (POU AE 20-2019).

[2] = tested on: total bacterial number in crop content; experiment: Total bacterial number by qPCR targeting 16S rRNA gene; type: in vivo, chickens; details: in-water for one week via SP and TAED precursors; P=0.02
Protocol: as §1

CC(=O)OO [PAA, peracetic acid]
effect on BWG from D7 to D14 ([1]; PAA administered at 40 ppm, P=0.05): most evident effect | adverse effects ([1]; PAA in-water administration): no adverse effects | bird mortality ([1]; in-water PAA up to 50 ppm): 0 ^0/0 | BWG during treatment ([1]; in-water for one week via SP and TAED precursors, P=0.05): increased | BN in the crop [2]: reducing; also recorded: appears to be reduced by higher dosage
